As a reminder, the melting point is the temperature, or range, at which the solid turns liquid.

From US11026427B2, “Microbiocidal oxadiazole derivatives” (SYNGENTA PARTICIPATIONS AG, priority 2016, dated 2021) come the findings set out here.

One data set relates to Phakopsora pachyrhizi. In words: Phakopsora pachyrhizi / soybean / leaf disc preventative (Asian soybean rust). The format is in vivo. To be noted: foliar, 200 ppm in the applied formulation, compared to untreated control, read-out: disease control. Here is the method:
(§1) Leaf disks or leaf segments of various plant species are cut from plants grown in a greenhouse. The cut leaf disks or segments are placed in multiwell plates (24-well format) onto water agar. The leaf disks are sprayed with a test solution before (preventative) or after (curative) inoculation. Compounds to be tested are prepared as DMSO solutions (max. 10 mg/ml) which are diluted to the appropriate concentration with 0.025% Tween20 just before spraying. The inoculated leaf disks or segments are incubated under defined conditions (temperature, relative humidity, light, etc.) according to the respective test system. A single evaluation of disease level is carried out 3 to 14 days after inoculation, depending on the pathosystem. Percent disease control relative to the untreated check leaf disks or segments is then calculated.
Soybean leaf disks are placed on water agar in multiwell plates (24-well format) and sprayed with the formulated test compound diluted in water. One day after application leaf discs are inoculated by spraying a spore suspension on the lower leaf surface. After an incubation period in a climate cabinet of 24-36 hours in darkness at 20° C. and 75% rh leaf disc are kept at 20° C. with 12 h light/day and 75% rh. The activity of a compound is assessed as percent disease control compared to untreated when an appropriate level of disease damage appears in untreated check leaf disks (12 to 14 days after application).
(§2) The following compounds at 200 ppm in the applied formulation give at least 80% disease control in this test when compared to untreated control leaf disks under the same conditions, which show extensive disease development.

For data set [1], the system named is Glomerella lacenarium (Colletotrichum lacenarium). The experiment in a line: Glomerella lacenarium (Colletotrichum lacenarium) liquid culture / cucumber / preventative (anthracnose). In kind it is cell-based. The note with it: 20 ppm in the applied formulation, growth inhibition measured photometrically, compared to untreated control, read-out: disease control. Here is the method: Mycelia fragments or conidia suspensions of a fungus prepared either freshly from liquid cultures of the fungus or from cryogenic storage, are directly mixed into nutrient broth. DMSO solutions of the test compound (max. 10 mg/ml) are diluted with 0.025% Tween20 by a factor of 50 and 10 μl of this solution is pipetted into a microtiter plate (96-well format). The nutrient broth containing the fungal spores/mycelia fragments is then added to give an end concentration of the tested compound. The test plates are incubated in the dark at 24° C. and 96% relative humidity. The inhibition of fungal growth is determined photometrically after 2 to 7 days, depending on the pathosystem, and percent antifungal activity relative to the untreated check is calculated.
Conidia of the fungus from cryogenic storage are directly mixed into nutrient broth (PDB—potato dextrose broth). After placing a (DMSO) solution of test compound into a microtiter plate (96-well format), the nutrient broth containing the fungal spores is added. The test plates are incubated at 24° C. and the inhibition of growth is measured photometrically 3 to 4 days after application.
The following compounds at 20 ppm in the applied formulation give at least 80% disease control in this test when compared to untreated control under the same conditions, which show extensive disease development.

Data set [2] deals with Puccinia recondita f. Sp. tritici. The experiment in a line: Puccinia recondita f. sp. tritici / wheat / leaf disc curative (brown rust). The format is in vivo. The note with it: foliar, 200 ppm in the applied formulation, compared to untreated control, read-out: disease control. Here is the method:
as §1
Wheat leaf segments cv. Kanzler are placed on agar in multiwell plates (24-well format). The leaf segments are then inoculated with a spore suspension of the fungus. Plates were stored in darkness at 19° C. and 75% relative humidity. The formulated test compound diluted in water was applied 1 day after inoculation. The leaf segments were incubated at 19° C. and 75% relative humidity under a light regime of 12 hours light/12 hours darkness in a climate cabinet and the activity of a compound was assessed as percent disease control compared to untreated when an appropriate level of disease damage appears in untreated check leaf segments (6 to 8 days after application).
as §2

For data set [3] the test system is unchanged. In words: Puccinia recondita f. sp. tritici / wheat / leaf disc preventative (brown rust). The note with it: foliar, 200 ppm in the applied formulation, compared to untreated control, read-out: disease control. The format is in vivo. Here is the method: as §1, with “calculated. Wheat leaf segments cv. Kanzler were placed on agar in multiwell plates (24-well format) and sprayed with the formulated test compound diluted in water. The leaf disks were inoculated with a spore suspension of the fungus 1 day after application. The inoculated leaf segments were incubated at 19° C. and 75% relative humidity (rh) under a light regime of 12 hours light/12 hours darkness in a climate cabinet and the activity of a compound was assessed as percent disease control compared to untreated when an appropriate level of disease damage appears in untreated check leaf segments (7 to 9 days after application). The following compounds at 200 ppm in the applied formulation give at least 80% disease control in this test when compared to untreated control leaf disks under the same conditions, which show extensive disease development.” for “calculated.”

Molecule `COc1ccc(C(=O)c2ccc(-c3noc(C(F)(F)F)n3)cc2)cn1` [Compound 1.15, (6-methoxy-3-pyridyl)-[4-[5-(trifluoromethyl)-1,2,4-oxadiazol-3-yl]phenyl]methanone] gave a melting point of 105 to 110 °C. Besides, the pest or weed control at 200 ppm in the data set on Phakopsora pachyrhizi was not below 80%. In data set [1], the inhibition of growth at 20 ppm is not below 80%.
Regarding `C=CCC(O)(c1ccc(-c2noc(C(F)(F)F)n2)cc1)c1cc(C)no1` (stereo not shown) [Compound 2.23, 1-(3-methylisoxazol-5-yl)-1-[4-[5-(trifluoromethyl)-1,2,4-oxadiazol-3-yl]phenyl]but-3-en-1-ol], the pest or weed control at 200 ppm in data set [2] was not below 80%.
Consider `O=C(c1ccc(-c2noc(C(F)(F)F)n2)cc1)c1cnn(C(F)(F)F)c1` [Compound 1.26, [4-[5-(trifluoromethyl)-1,2,4-oxadiazol-3-yl]phenyl]-[1-(trifluoromethyl)pyrazol-4-yl]methanone], for which the melting point lay in the range of 98 to 102 °C. For the same molecule, the pest or weed control at 200 ppm with Phakopsora pachyrhizi was not below 80%.
Turning to `CCOC(=O)c1csc(C(O)c2ccc(-c3noc(C(F)(F)F)n3)cc2)n1` (stereo not shown) [Compound 2.19, ethyl 2-[hydroxy-[4-[5-(trifluoromethyl)-1,2,4-oxadiazol-3-yl]phenyl]methyl]thiazole-4-carboxylate], the melting point lay within 118 to 122 °C. Moreover, in data set [3], the pest or weed control at 200 ppm is not below 80%.
`CCOC(=O)c1cnn(CC(=O)c2ccc(-c3noc(C(F)(F)F)n3)cc2)c1` [Compound 1.19, ethyl 1-[2-oxo-2-[4-[5-(trifluoromethyl)-1,2,4-oxadiazol-3-yl]phenyl]ethyl]pyrazole-4-carboxylate]: the melting point is 153.6 to 156.1 °C.
With `O=C(c1ccc(-c2noc(C(F)(F)F)n2)cc1)c1cccc(OC(F)F)c1` [Compound 1.29, [3-(difluoromethoxy)phenyl]-[4-[5-(trifluoromethyl)-1,2,4-oxadiazol-3-yl]phenyl]methanone], the melting point is 85 to 88 °C. In addition, the pest or weed control at 200 ppm in the data set on Phakopsora pachyrhizi is not below 80%. The inhibition of growth at 20 ppm in data set [1] is not below 80%.
Molecule `O=C(c1ccc(-c2noc(C(F)(F)F)n2)cc1)c1cscn1` [Compound 1.32, thiazol-4-yl-[4-[5-(trifluoromethyl)-1,2,4-oxadiazol-3-yl]phenyl]methanone] had a melting point of 68 to 74 °C. Moreover, the pest or weed control at 200 ppm with Phakopsora pachyrhizi is not below 80%. Besides, in data set [1], the inhibition of growth at 20 ppm was not below 80%.
In the case of `CC(C)(C)C(O)c1ccc(-c2noc(C(F)(F)F)n2)cc1` (stereo not shown) [Compound 2.1, 2,2-dimethyl-1-[4-[5-(trifluoromethyl)-1,2,4-oxadiazol-3-yl]phenyl]propan-1-ol], the melting point was in the range of 60 to 75 °C. In addition, the pest or weed control at 200 ppm with Phakopsora pachyrhizi was not below 80%. Further, the inhibition of growth at 20 ppm in data set [1] was not below 80%.
`O=C(c1ccc(-c2noc(C(F)(F)F)n2)cc1)c1ccc(F)cc1F` [Compound 1.28, (2,4-difluorophenyl)-[4-[5-(trifluoromethyl)-1,2,4-oxadiazol-3-yl]phenyl]methanone]: the melting point was in the range of 92 to 95 °C. Further, the pest or weed control at 200 ppm in the data set on Phakopsora pachyrhizi was not below 80%. For the same molecule, the inhibition of growth at 20 ppm in data set [1] is not below 80%.
With `CCOC(=O)c1csc(C(=O)c2ccc(-c3noc(C(F)(F)F)n3)cc2)n1` [Compound 1.25, ethyl 2-[4-[5-(trifluoromethyl)-1,2,4-oxadiazol-3-yl]benzoyl]thiazole-4-carboxylate], the melting point lay in the range of 78 to 82 °C.
On to `CCCCC(=O)c1ccc(-c2noc(C(F)(F)F)n2)cc1` [Compound 1.5, 1-[4-[5-(trifluoromethyl)-1,2,4-oxadiazol-3-yl]phenyl]pentan-1-one], for which the melting point lay within 57 to 61 °C. Further, the inhibition of growth at 20 ppm in data set [1] is not below 80%.
Take `OC(c1ccc(-c2noc(C(F)(F)F)n2)cc1)c1ccc(F)cc1F` (stereo not shown) [Compound 2.15, (2,4-difluorophenyl)-[4-[5-(trifluoromethyl)-1,2,4-oxadiazol-3-yl]phenyl]methanol]: the pest or weed control at 200 ppm (with Phakopsora pachyrhizi; in data set [3]) was not below 80% throughout. Moreover, the inhibition of growth at 20 ppm in data set [1] is not below 80%.
With `Cc1cc(C(O)(c2ccc(-c3noc(C(F)(F)F)n3)cc2)C(C)C)on1` (stereo not shown) [Compound 2.29, 2-methyl-1-(3-methylisoxazol-5-yl)-1-[4-[5-(trifluoromethyl)-1,2,4-oxadiazol-3-yl]phenyl]propan-1-ol], in data set [3], the pest or weed control at 200 ppm was not below 80%.
The molecule `CCOC(=O)c1cc(C(=O)c2ccc(-c3noc(C(F)(F)F)n3)cc2)on1` [Compound 1.22, ethyl 5-[4-[5-(trifluoromethyl)-1,2,4-oxadiazol-3-yl]benzoyl]isoxazole-3-carboxylate] came in with a melting point of 197 to 200 °C. Also, the inhibition of growth at 20 ppm in data set [1] was not below 80%.
Consider `CCC(O)c1ccc(-c2noc(C(F)(F)F)n2)cc1` (stereo not shown) [Compound 2.16, 1-[4-[5-(trifluoromethyl)-1,2,4-oxadiazol-3-yl]phenyl]propan-1-ol], for which the melting point lay in the range of 66 to 68 °C. The inhibition of growth at 20 ppm in data set [1] is not below 80%.
With `N#CC(O)c1ccc(-c2noc(C(F)(F)F)n2)cc1` (stereo not shown) [Compound 2.11, 2-hydroxy-2-[4-[5-(trifluoromethyl)-1,2,4-oxadiazol-3-yl]phenyl]acetonitrile], the melting point was in the range of 79 to 80 °C. Further, the pest or weed control at 200 ppm in data set [3] is not below 80%. Further, in data set [1], the inhibition of growth at 20 ppm was not below 80%.
In the case of `CCOC(=O)c1cnc(C(=O)c2ccc(-c3noc(C(F)(F)F)n3)cc2)nc1C` [Compound 1.31, ethyl 4-methyl-2-[4-[5-(trifluoromethyl)-1,2,4-oxadiazol-3-yl]benzoyl]pyrimidine-5-carboxylate], the melting point fell in the range of 92 to 93 °C. Besides, the inhibition of growth at 20 ppm in data set [1] was not below 80%.
As for `O=C(c1ccc(-c2noc(C(F)(F)F)n2)cc1)c1ncc(C(F)(F)F)s1` [Compound 1.21, [4-[5-(trifluoromethyl)-1,2,4-oxadiazol-3-yl]phenyl]-[5-(trifluoromethyl)thiazol-2-yl]methanone], the melting point was 90 to 94 °C.
On the same count and under the same terms, the result for `O=C(c1ccc(-c2noc(C(F)(F)F)n2)cc1)c1cnc(C(F)(F)F)s1` [Compound 1.23, [4-[5-(trifluoromethyl)-1,2,4-oxadiazol-3-yl]phenyl]-[2-(trifluoromethyl)thiazol-5-yl]methanone] reads 126 to 132 °C; that for `Cc1cncc(C(=O)c2ccc(-c3noc(C(F)(F)F)n3)cc2)c1` [Compound 1.36, (5-methyl-3-pyridyl)-[4-[5-(trifluoromethyl)-1,2,4-oxadiazol-3-yl]phenyl]methanone], 80 to 84 °C.
`C=CCC(O)c1ccc(-c2noc(C(F)(F)F)n2)cc1` (stereo not shown) [Compound 2.17, 1-[4-[5-(trifluoromethyl)-1,2,4-oxadiazol-3-yl]phenyl]but-3-en-1-ol]: the melting point was in the range of 45 to 48 °C. For the same molecule, the pest or weed control at 200 ppm with Phakopsora pachyrhizi was not below 80%. The inhibition of growth at 20 ppm in data set [1] was not below 80%.
